Entries after “also recorded” stand apart in the source; their conditions may differ.
Test: Oral glucose tolerance test (OGTT) in healthy dogs
Format: in vivo, dog
Conditions: male beagle, n=6, single s.c. injection at time 0, insulin glargine 0.3 U/kg, AVE0010 10 μg/kg, relative to Lantus placebo; for OGTT-induced postprandial increase in blood glucose: repeated OGTT 2 g/kg p.o. at 30 min and 5 h; for blood glucose concentration in the postabsorptive phase: repeated OGTT 2 g/kg p.o.
Method: Model: Oral glucose tolerance test (OGTT) in healthy dogs: Comparison of the insulin glargine/AVE0010 combination with the two individual active compounds.
• Male normoglycemic beagles • Bodyweight: ˜15 kg • Number per group: n=6 Study Design (See FIG. 1) • Individual subcutaneous injections of placebo or test formulation at time 0 • 2 oral administrations of glucose, at 2 g of glucose/kg of bodyweight, at times 30 min and 5 h • Blood samples are taken to determine blood glucose, plasma insulin, and c-peptide Group Division (n=6) • Placebo (Lantus placebo formulation without API) • Insulin glargine (0.3 μl/kg s.c., equivalent to 1.8 nmol/kg). Insulin glargine is Gly(A21)-Arg(B31)-Arg(B32) human insulin. • AVE0010 (10 μg/kg s.c. in Lantus placebo formulation, equivalent to 2 nmol/kg).
AVE0010 is des Pro^36exendin-4(1-39)-Lys6-NH2. • AVE0010/insulin glargine combination (10 μg/kg AVE0010/0.3 μl/kg insulin glargine s.c.)

Substance	OGTT-induced postprandial increase in blood glucose	blood glucose concentration in the postabsorptive phase
Gly(A21)-Arg(B31)-Arg(B32) human insulin [insulin glargine]	does not prevent the OGTT-induced increase in blood glucose; also recorded: has no effect on the postprandial glucose level	reinforces the expected delayed lowering of blood glucose concentration in the postabsorptive phase
des Pro^36exendin-4(1-39)-Lys6-NH2 [AVE0010]	prevents the OGTT-induced postprandial increase in blood glucose almost completely	no effect on the glucose concentration in the postabsorptive phase; also recorded: has no effect on the level of glucose, which has fallen again following administration of glucose

Source: patent publication US10117909B2, “Combination of an insulin and a GLP-1 agonist” (Sanofi-Aventis Deutschland GmbH, priority 2008, dated 2018)
